Reference: ChEMBL document CHEMBL3045521, “Synthesis and evaluation of anti-inflammatory, analgesic, ulcerogenicity and nitric oxide-releasing studies of novel ibuprofen analogs as nonulcerogenic derivatives” (Med Chem Res, 2011)
Converted amounts (≈) assume the structure as drawn.

Tests used:
Mus musculus [1] = assay: Analgesic activity in Mus musculus (mouse) assessed as inhibition of acetic acid-induced writhing at 15 mg/kg, po measured after 5 min for 15 min relative to control; assay type: functional
Rattus norvegicus [2] = assay: Anti-inflammatory activity in Rattus norvegicus Wistar albino (rat) assessed as carrageenan-induced paw edema at 20 mg/kg, po administered 1 hr prior to carrageenan-challenge measured at 3 hr relative to control; assay type: functional
Rattus norvegicus [3] = assay: Anti-inflammatory activity in Rattus norvegicus Wistar albino (rat) assessed as carrageenan-induced paw edema at 20 mg/kg, po administered 1 hr prior to carrageenan-challenge measured at 2 hr relative to control; assay type: functional
Rattus norvegicus [4] = assay: Anti-inflammatory activity in Rattus norvegicus Wistar albino (rat) assessed as carrageenan-induced paw edema at 20 mg/kg, po administered 1 hr prior to carrageenan-challenge measured at 1 hr relative to control; assay type: functional
[5] = Induction of nitric oxide release at 10^-4 M after 1 hr by Griess method relative to control; assay type: physicochemical; conditions: 100 µM
Aorta = assay: Vasorelaxant activity in normotensive Rattus norvegicus Wistar albino (rat) aorta assessed as inhibition of norepinephrine-induced contraction; assay type: functional, tissue-based
Rattus norvegicus [6] = assay: Gastrointestinal toxicity against Rattus norvegicus Wistar albino (rat) assessed as disruption of mucosal layer at 59.64 mg/kg po by HE-staining based […] microscopic analysis; assay type: organism-based; parameters: dose 59.64 mg/kg, route oral; conditions: in vivo
Mus musculus [7] = assay: Analgesic activity in Mus musculus (mouse) assessed as inhibition of acetic acid-induced writhing at 37.28 mg/kg, po measured after 5 min for 15 min relative to control; assay type: functional
Rattus norvegicus [8] = assay: Anti-inflammatory activity in Rattus norvegicus Wistar albino (rat) assessed as carrageenan-induced paw edema at 49.7 mg/kg, po administered 1 hr prior to carrageenan-challenge measured at 1 hr relative to control; assay type: functional
Rattus norvegicus [9] = assay: Anti-inflammatory activity in Rattus norvegicus Wistar albino (rat) assessed as carrageenan-induced paw edema at 49.7 mg/kg, po administered 1 hr prior to carrageenan-challenge measured at 3 hr relative to control; assay type: functional
Rattus norvegicus [10] = assay: Anti-inflammatory activity in Rattus norvegicus Wistar albino (rat) assessed as carrageenan-induced paw edema at 49.7 mg/kg, po administered 1 hr prior to carrageenan-challenge measured at 2 hr relative to control; assay type: functional
Rattus norvegicus [11] = assay: Gastrointestinal toxicity against Rattus norvegicus Wistar albino (rat) assessed as disruption of mucosal layer at 61.2 mg/kg po by HE-staining based […] microscopic analysis; assay type: organism-based; parameters: dose 61.2 mg/kg, route oral; conditions: in vivo
Rattus norvegicus [12] = assay: Anti-inflammatory activity in Rattus norvegicus Wistar albino (rat) assessed as carrageenan-induced paw edema at 51.06 mg/kg, po administered 1 hr prior to carrageenan-challenge measured at 3 hr relative to control; assay type: functional
Rattus norvegicus [13] = assay: Anti-inflammatory activity in Rattus norvegicus Wistar albino (rat) assessed as carrageenan-induced paw edema at 51.06 mg/kg, po administered 1 hr prior to carrageenan-challenge measured at 2 hr relative to control; assay type: functional
Rattus norvegicus [14] = assay: Anti-inflammatory activity in Rattus norvegicus Wistar albino (rat) assessed as carrageenan-induced paw edema at 51.06 mg/kg, po administered 1 hr prior to carrageenan-challenge measured at 1 hr relative to control; assay type: functional
Mus musculus [15] = assay: Analgesic activity in Mus musculus (mouse) assessed as inhibition of acetic acid-induced writhing at 37.87 mg/kg, po measured after 5 min for 15 min relative to control; assay type: functional
Mus musculus [16] = assay: Analgesic activity in Mus musculus (mouse) assessed as inhibition of acetic acid-induced writhing at 47.98 mg/kg, po measured after 5 min for 15 min relative to control; assay type: functional
Rattus norvegicus [17] = assay: Anti-inflammatory activity in Rattus norvegicus Wistar albino (rat) assessed as carrageenan-induced paw edema at 63.98 mg/kg, po administered 1 hr prior to carrageenan-challenge measured at 3 hr relative to control; assay type: functional
Rattus norvegicus [18] = assay: Anti-inflammatory activity in Rattus norvegicus Wistar albino (rat) assessed as carrageenan-induced paw edema at 63.98 mg/kg, po administered 1 hr prior to carrageenan-challenge measured at 2 hr relative to control; assay type: functional
Rattus norvegicus [19] = assay: Anti-inflammatory activity in Rattus norvegicus Wistar albino (rat) assessed as carrageenan-induced paw edema at 63.98 mg/kg, po administered 1 hr prior to carrageenan-challenge measured at 1 hr relative to control; assay type: functional
Rattus norvegicus [20] = assay: Anti-inflammatory activity in Rattus norvegicus Wistar albino (rat) assessed as carrageenan-induced paw edema at 66.69 mg/kg, po administered 1 hr prior to carrageenan-challenge measured at 3 hr relative to control; assay type: functional
Rattus norvegicus [21] = assay: Anti-inflammatory activity in Rattus norvegicus Wistar albino (rat) assessed as carrageenan-induced paw edema at 66.69 mg/kg, po administered 1 hr prior to carrageenan-challenge measured at 2 hr relative to control; assay type: functional
Mus musculus [22] = assay: Analgesic activity in Mus musculus (mouse) assessed as inhibition of acetic acid-induced writhing at 49.46 mg/kg, po measured after 5 min for 15 min relative to control; assay type: functional
Rattus norvegicus [23] = assay: Anti-inflammatory activity in Rattus norvegicus Wistar albino (rat) assessed as carrageenan-induced paw edema at 66.69 mg/kg, po administered 1 hr prior to carrageenan-challenge measured at 1 hr relative to control; assay type: functional
Rattus norvegicus [24] = assay: Gastrointestinal toxicity against Rattus norvegicus Wistar albino (rat) assessed as disruption of mucosal layer at 57.96 mg/kg po by HE-staining based […] microscopic analysis; assay type: organism-based; parameters: dose 57.96 mg/kg, route oral; conditions: in vivo
Mus musculus [25] = assay: Analgesic activity in Mus musculus (mouse) assessed as inhibition of acetic acid-induced writhing at 35.85 mg/kg, po measured after 5 min for 15 min relative to control; assay type: functional
Rattus norvegicus [26] = assay: Anti-inflammatory activity in Rattus norvegicus Wistar albino (rat) assessed as carrageenan-induced paw edema at 48.34 mg/kg, po administered 1 hr prior to carrageenan-challenge measured at 3 hr relative to control; assay type: functional
Rattus norvegicus [27] = assay: Anti-inflammatory activity in Rattus norvegicus Wistar albino (rat) assessed as carrageenan-induced paw edema at 48.34 mg/kg, po administered 1 hr prior to carrageenan-challenge measured at 2 hr relative to control; assay type: functional
Rattus norvegicus [28] = assay: Anti-inflammatory activity in Rattus norvegicus Wistar albino (rat) assessed as carrageenan-induced paw edema at 48.34 mg/kg, po administered 1 hr prior to carrageenan-challenge measured at 1 hr relative to control; assay type: functional
Rattus norvegicus [29] = assay: Gastrointestinal toxicity against Rattus norvegicus Wistar albino (rat) assessed as disruption of mucosal layer at 24 mg/kg po by HE-staining based […] microscopic analysis; assay type: organism-based; parameters: dose 24 mg/kg, route oral; conditions: in vivo

SMILES: CC(C)Cc1ccc(C(C)C(=O)O)cc1 (stereo not given) [IBUPROFEN]
- inhibition in vivo at 15 mg/kg (Mus musculus [1]): 62.4%
- inhibition in vivo at 20 mg/kg (Rattus norvegicus [2]): 62.8%
- inhibition in vivo at 20 mg/kg (Rattus norvegicus [3]): 58.2%
- inhibition in vivo at 20 mg/kg (Rattus norvegicus [4]): 53.9%

SMILES: CC(C)Cc1ccc(C(C)c2n[nH]c(=S)n2-c2ccc(C(=O)NNC(=O)CCO[N+](=O)[O-])cc2)cc1 (stereo not given)
- Activity [5]: 0.39%
- EC50 (Aorta): 30.5 µg/mL (≈ 59.5 µM)
- Activity (Rattus norvegicus [6]): Non-toxic
- inhibition in vivo at 37.28 mg/kg (Mus musculus [7]): 64.8%
- inhibition in vivo at 49.7 mg/kg (Rattus norvegicus [8]): 52.1%
- inhibition in vivo at 49.7 mg/kg (Rattus norvegicus [9]): 61.8%
- inhibition in vivo at 49.7 mg/kg (Rattus norvegicus [10]): 57.1%

SMILES: CC(C)Cc1ccc(C(C)c2n[nH]c(=S)n2-c2ccccc2CC(=O)NNC(=O)CCO[N+](=O)[O-])cc1 (stereo not given)
- Activity [5]: 0.32%
- EC50 (Aorta): 58.6 µg/mL (≈ 111 µM)
- Activity (Rattus norvegicus [11]): Non-toxic
- inhibition in vivo at 51.06 mg/kg (Rattus norvegicus [12]): 61.8%
- inhibition in vivo at 51.06 mg/kg (Rattus norvegicus [13]): 56.5%
- inhibition in vivo at 51.06 mg/kg (Rattus norvegicus [14]): 51.5%
- inhibition in vivo at 37.87 mg/kg (Mus musculus [15]): 56.1%

SMILES: CC(C)Cc1ccc(C(C)c2n[nH]c(=S)n2-c2ccc(C(=O)NNC(=O)CO[N+](=O)[O-])c(C(=O)NNC(=O)CO[N+](=O)[O-])c2)cc1 (stereo not given)
- Activity [5]: 0.42%
- EC50 (Aorta): 38.7 µg/mL (≈ 58.6 µM)
- inhibition in vivo at 47.98 mg/kg (Mus musculus [16]): 52.6%
- inhibition in vivo at 63.98 mg/kg (Rattus norvegicus [17]): 41.9%
- inhibition in vivo at 63.98 mg/kg (Rattus norvegicus [18]): 40.1%
- inhibition in vivo at 63.98 mg/kg (Rattus norvegicus [19]): 38.8%

SMILES: CC(C)Cc1ccc(C(C)c2n[nH]c(=S)n2-c2ccccc2CC(=O)NNC(=O)CO[N+](=O)[O-])cc1 (stereo not given)
- Activity [5]: 0.35%
- EC50 (Aorta): 55.3 µg/mL (≈ 108 µM)
- Activity (Rattus norvegicus [6]): Non-toxic
- inhibition in vivo at 37.28 mg/kg (Mus musculus [7]): 59%
- inhibition in vivo at 49.7 mg/kg (Rattus norvegicus [8]): 54.5%
- inhibition in vivo at 49.7 mg/kg (Rattus norvegicus [9]): 62.8%
- inhibition in vivo at 49.7 mg/kg (Rattus norvegicus [10]): 58.8%

SMILES: CC(C)Cc1ccc(C(C)c2n[nH]c(=S)n2-c2ccc(C(=O)NNC(=O)CCO[N+](=O)[O-])c(C(=O)NNC(=O)CCO[N+](=O)[O-])c2)cc1 (stereo not given)
- Activity [5]: 0.57%
- EC50 (Aorta): 34.9 µg/mL (≈ 50.7 µM)
- inhibition in vivo at 66.69 mg/kg (Rattus norvegicus [20]): 31.9%
- inhibition in vivo at 66.69 mg/kg (Rattus norvegicus [21]): 29.9%
- inhibition in vivo at 49.46 mg/kg (Mus musculus [22]): 48.6%
- inhibition in vivo at 66.69 mg/kg (Rattus norvegicus [23]): 27.9%

SMILES: CC(C)Cc1ccc(C(C)c2n[nH]c(=S)n2-c2ccc(C(=O)NNC(=O)CO[N+](=O)[O-])cc2)cc1 (stereo not given)
- Activity [5]: 0.48%
- EC50 (Aorta): 42.8 µg/mL (≈ 85.8 µM)
- Activity (Rattus norvegicus [24]): Non-toxic
- inhibition in vivo at 35.85 mg/kg (Mus musculus [25]): 63.6%
- inhibition in vivo at 48.34 mg/kg (Rattus norvegicus [26]): 61.2%
- inhibition in vivo at 48.34 mg/kg (Rattus norvegicus [27]): 56.5%
- inhibition in vivo at 48.34 mg/kg (Rattus norvegicus [28]): 52.7%

SMILES: O=C(O)Cc1ccccc1Nc1c(Cl)cccc1Cl [DICLOFENAC]
- Activity (Rattus norvegicus [29]): Toxic
